Results published in ChEMBL document CHEMBL3132815, “Design, synthesis and activities of 4/5-acyl-2-aminoimidazolyl analogues of oroidin for biofilm inhibition” (Medchemcomm, 2013).

What was measured:
Pseudomonas aeruginosa [1] = assay: Antibiofilm activity against Pseudomonas aeruginosa PAO1 assessed as inhibition of biofilm formation at 50 ug/ml; type: functional
Pseudomonas aeruginosa [2] = assay: Antibacterial activity against Pseudomonas aeruginosa PAO1 assessed as planktonic growth at 50 ug/ml; type: organism-based
Staphylococcus aureus [3] = assay: Antibiofilm activity against methicillin-resistant Staphylococcus aureus 1094 assessed as inhibition of biofilm formation at 50 ug/ml; type: functional
Staphylococcus aureus [4] = assay: Antibacterial activity against methicillin-resistant Staphylococcus aureus 1094 assessed as planktonic growth at 50 ug/ml; type: organism-based
Staphylococcus aureus [5] = assay: Antibiofilm activity against methicillin-resistant Staphylococcus aureus assessed as inhibition of biofilm formation at 50 ug/ml; type: functional
Staphylococcus aureus [6] = assay: Antibacterial activity against methicillin-resistant Staphylococcus aureus assessed as planktonic growth at 50 ug/ml; type: organism-based; settings: in vitro
Staphylococcus aureus [7] = assay: Antibiofilm activity against Staphylococcus aureus ATCC 35556 assessed as inhibition of biofilm formation at 50 ug/ml; type: functional
Staphylococcus aureus [8] = assay: Antibacterial activity against Staphylococcus aureus ATCC 35556 assessed as planktonic growth at 50 ug/ml; type: organism-based
[9] = system: Staphylococcus epidermidis; assay: Antibiofilm activity against Staphylococcus epidermidis 1457 assessed as inhibition of biofilm formation at 50 ug/ml; type: functional
[10] = system: Staphylococcus epidermidis; assay: Antibacterial activity against Staphylococcus epidermidis 1457 assessed as planktonic growth at 50 ug/ml; type: organism-based
[11] = system: Staphylococcus epidermidis; assay: Antibiofilm activity against Staphylococcus epidermidis GTC 18972 assessed as inhibition of biofilm formation at 50 ug/ml; type: functional
[12] = system: Staphylococcus epidermidis; assay: Antibacterial activity against Staphylococcus epidermidis GTC 18972 assessed as planktonic growth at 50 ug/ml; type: organism-based
Pseudomonas aeruginosa [13] = assay: Antibiofilm activity against Pseudomonas aeruginosa PAO1 assessed as inhibition of biofilm formation; type: functional, organism-based; settings: Pseudomonas aeruginosa, PAO1

Row | SMILES | inhibition at 50 µg/mL (Pseudomonas aeruginosa [1]) | Activity (Pseudomonas aeruginosa [2]) | inhibition at 50 µg/mL (Staphylococcus aureus [3]) | Activity (Staphylococcus aureus [4]) | inhibition at 50 µg/mL (Staphylococcus aureus [5]) | Activity (Staphylococcus aureus [6]) | inhibition at 50 µg/mL (Staphylococcus aureus [7]) | Activity (Staphylococcus aureus [8]) | inhibition at 50 µg/mL [9] | Activity [10] | inhibition at 50 µg/mL [11] | Activity [12] | IC50 (Pseudomonas aeruginosa [13])
1 | O=C(NC/C=C/c1cnc2ncccn12)c1cc(Br)c[nH]1 | 2.1% | -19.9% | 36% | -8.7% | -108% | -16.4% | -5.5% | 8.6% | 14% | -24% | -1.8% | -3.1% | –
2 | O=C(NC/C=C/c1cnc2ncccn12)c1ccc[nH]1 | -2.9% | 14.6% | 47.8% | -0.8% | -61% | 5% | 16.4% | -11.5% | 22.8% | -8.9% | 45.9% | 0.1% | –
3 | Nc1nc(C(=O)CCNC(=O)c2cc(Br)c(Br)[nH]2)c[nH]1 | 4.13% | 6.46% | -66% | 21.91% | 28.3% | 1.56% | -0.94% | -4.22% | 17.8% | -13.68% | 33.8% | 9.62% | 60 µM
4 | O=C(CN1C(=O)c2ccccc2C1=O)c1cnc2ncccn12 | -7.64% | -0.69% | -67.5% | 21.51% | -97.9% | 3.76% | -3.15% | -6.07% | 6.4% | 11.1% | 8.1% | 29.67% | –
5 | O=C(CCN1C(=O)c2ccccc2C1=O)c1cnc2ncccn12 | 23% | -16.12% | -53.2% | 15.94% | 18.7% | 10.43% | 6.92% | 2.31% | 10.6% | 15.13% | -11% | 23.58% | –
6 | O=C(NCC(=O)c1cnc2ncccn12)c1cc(Br)c(Br)[nH]1 | 20.8% | -15.25% | -13.9% | 18.43% | -119% | 7.17% | -5.8% | -4.3% | 6.17% | 13.8% | -2.59% | 19.25% | –
7 | O=C(NCC(=O)c1cnc2ncccn12)c1cc(Br)c[nH]1 | 27.4% | -6.55% | 7.07% | 16.74% | -124% | -6.08% | -8.17% | -3.86% | 7.83% | 13.47% | -9.93% | 19.25% | –
8 | O=C(NCC(=O)c1cnc2ncccn12)c1ccc[nH]1 | 14.3% | 3.14% | 2.15% | 20.67% | -119% | 3.76% | -5.94% | -4.75% | 7.6% | 11.5% | -6.61% | 17.02% | –
9 | O=C(NCCC(=O)c1cnc2ncccn12)c1cc(Br)c(Br)[nH]1 | 8.66% | -13.02% | 0.13% | 6.37% | -124% | -1.91% | -4.41% | -6.51% | 4.48% | 9.93% | -9.35% | 15.9% | –
10 | O=C(NCCC(=O)c1cnc2ncccn12)c1cc(Br)c[nH]1 | 17% | -14.84% | 22.5% | 5.81% | -127% | -6.08% | -8.17% | 4.97% | 2.71% | -2.26% | -9.3% | 1.02% | –
11 | O=C(NCCC(=O)c1cnc2ncccn12)c1ccc[nH]1 | 13.2% | -15.89% | -25.1% | 10.52% | 16.9% | 0.95% | -1.6% | 6.67% | 1.26% | -3.27% | -16.7% | 11.45% | –
12 | O=C(NCC(O)c1cnc2ncccn12)c1cc(Br)c(Br)[nH]1 (stereo unspecified) | 8.66% | -13.02% | 0.13% | 6.37% | -124% | -1.91% | -4.41% | -6.51% | 4.48% | 9.93% | -9.35% | 15.9% | –
13 | O=C(NCC(O)c1cnc2ncccn12)c1cc(Br)c[nH]1 (stereo unspecified) | 17% | -14.84% | 22.5% | 5.81% | -127% | -6.08% | -8.17% | 4.97% | 2.71% | -2.26% | -9.3% | 1.02% | –
14 | O=C(NCC(O)c1cnc2ncccn12)c1ccc[nH]1 (stereo unspecified) | 13.2% | -15.89% | -25.1% | 10.52% | 16.9% | 0.95% | -1.6% | 6.67% | -1.26% | -3.27% | -16.8% | 11.45% | –
15 | O=C(NCCC(O)c1cnc2ncccn12)c1cc(Br)c(Br)[nH]1 (stereo unspecified) | -1.4% | 14.1% | 26.2% | -0.8% | -20.9% | -5.1% | -2.2% | 2.9% | 19.6% | 10.2% | -33.1% | 14.8% | –
16 | O=C(NCCC(O)c1cnc2ncccn12)c1cc(Br)c[nH]1 (stereo unspecified) | 1.9% | 17.1% | 34.3% | 17.3% | 8% | 15.4% | 2.2% | 4.7% | 2.6% | 2.9% | -14.1% | 6.5% | –
17 | O=C(NCCC(O)c1cnc2ncccn12)c1ccc[nH]1 (stereo unspecified) | 3.9% | -19.1% | 26.8% | -7.9% | -5.1% | 6.1% | -6.5% | 3.3% | 9.6% | 0.7% | 18.1% | 1% | –
18 | O=C(NC/C=C/c1cnc2ncccn12)c1cc(Br)c(Br)[nH]1 | -1.7% | 11.6% | 38.9% | -0.5% | -9.7% | -6.1% | -0.4% | 3.3% | 18.3% | 7.8% | -16.6% | 9.1% | –
19 | Cl.Cl.NCCC(=O)c1cnc2ncccn12 | -1.5% | 11.1% | -1.8% | -0.9% | -10.6% | -12.6% | 57.1% | -3.3% | 33% | 3.5% | 4.2% | 5.5% | –
20 | Cl.Cl.NCC(=O)c1cnc2ncccn12 | 5.6% | 28.8% | -30.2% | 2% | 4.3% | 7.8% | -5.1% | 6.2% | 0.9% | -0.6% | 28.7% | 6.4% | –
